Source: patent US9340559B2, “Proteasome inhibitor delanzomib for use in the treatment of lupus” (Cephalon, Inc., priority 2011, dated 2016)

Columns and labels:
[1] = test system: NZM mice; assay: Survival, NZM lupus nephritis model, ip dosing (Example 2); format: in vivo, mouse; details: G6 50 mg/kg ip, 1× wk
[2] = test system: NZM mice; assay: Body weight progression, NZM mice (Example 2); format: in vivo, mouse; details: G6 50 mg/kg ip, 1× wk
[3] = test system: NZM mice; assay: Splenomegaly (spleen mass), NZM mice (Example 2); format: in vivo, mouse
[4] = test system: NZM mice; assay: Urinalysis: total urine protein (proteinuria), NZM mice (Example 2); format: in vivo, mouse; details: G6 50 mg/kg ip, 1× wk
[5] = test system: NZM mice; assay: Antinuclear antibody (ANA) ELISA (anti-chromatin, anti-Smith Ag, anti-dsDNA), serum of NZM mice (Example 2); format: in vivo, mouse
[6] = test system: NZM mice; format: in vivo, mouse
[7] = test system: NZM mice; assay: Antibody secreting B-cell Elispot (anti-chromatin, total IgG ASC), spleens of NZM mice (Example 2); format: in vivo, mouse
Experimental: FIG. 34 depicts the frequency of anti-chromatin antibody secreting cells in the spleens of NZM mice. NZM treated mice spleens were processed for splenocytes for ex vivo Elispot assays. Elispot wells were coated with 10 μg/mL of boiled chicken chromatin or ovalbumin protein. Fresh, whole splenocytes were added to each well at 50,000 cells per well in cell culture medium. Cells were incubated overnight at 37° C. Developed wells provided spots that were counted as frequency of ASCs per million splenocytes.
FIG. 35 depicts the frequency of total IgG antibody secreting cells in the spleens of NZM mice. NZM treated mice spleens were processed for splenocytes for ex vivo Elispot assays. Elispot wells were coated with 10 μg/mL of anti-mouse IgG, IgH, and IgL chains. Fresh, whole splenocytes were added to each well at 50,000 cells per well in cell culture medium. Cells were incubated overnight at 37° C. Developed wells provided spots that were counted as frequency of ASCs per million splenocytes.
B-cell Elispot components are ordered from MabTech (Nacka Strand, Sweden) and nitrocellulose IP filter plates are ordered from Millipore (Billerica, Mass.). Elispot wells are coated with either purified bovine thymus dsDNA (Sigma), purified bovine Smith antigen (GenWay) or boiled filtered purified chicken chromatin from lysed chicken red blood cells (Rockland, Gilbertsville, Pa.) at 10 μg/mL. Spleens are processed using glass homogenization (frosted slides). Dispersed cell contents are washed in sterile HBSS and RBCs lysed using 1×RBC lysis buffer (BioLegend, Cat #420301). Processed splenocytes are added to each well and are not stimulated with lipopolysaccharide (LPS) to avoid skewing of true ex vivo frequencies of antibody-secreting cell types (ASCs). Anti-mouse pan-IgG is used as a positive control for total IgG producing ASCs and is used to normalize results. Frequencies for each antigen are identified in an initial test phase for each model. For chromatin and total IgG only, 30,000 splenocytes are added to each well; for Smith antigen and dsDNA, 500,000 cells are added to each well. Different numbers of splenocytes are added for different antigens due to saturation limits of spot frequencies per well. B-cell Elispots are incubated overnight at 37° C. To develop each assay, secondary antibody is added to each well, incubated, washed and alkaline phosphatase strepavidin (Jackson ImmunoResearch, West Grove, Pa.) is used as the conjugate; substrate used is BCIP-NBT (MabTech, Cincinnati, Ohio). Plates are developed until spots are visible. All Elispot analyses are performed using an Immunospot C.T.L. scanner and Biospot software (Cellular Technology Ltd., Shaker Heights, Ohio). Results are shown as values from which media and cells only wells are subtracted. Some values are negative due to high background.

[8] = test system: NZM mice; assay: Collagen type-I cross-linker (CTx) bone resorption biomarker ELISA, serum of NZM mice; format: in vivo, mouse; details: G6 50 mg/kg ip, 1× wk
Experimental: Assay is performed as instructed by the manufacturer. Briefly, biotinylated ratlaps antigen is first added in each well of a 96-well ELISA plate. This plate is covered and incubated for 30 minutes at RT. Plate is washed five times with washing solution and incubated with standards or unknown samples in appropriate wells followed by primary Ab. Incubate overnight for 18 hours at 4° C. followed by washing with buffer. Secondary incubation includes a peroxidase conjugated goat anti-rabbit IgG added to each well and incubation at RT for 1 hour. Incubation with chromogenic substrate solution for 15 minutes at RT in the dark develops the plate for analysis. Stopping solution halts the reaction, absorbance is measured within 2 hours at 450 nm.

[9] = test system: NZM mice; assay: Renal histopathology scoring (kidney IC-GN), NZM mice (Example 2); format: in vivo, mouse
Experimental: For histological analyses, the left kidney from each animal is removed and fixed in 10% buffered neutral formalin (EMD) for 48 hours on an orbital rocker at 25° C., then washed overnight with running dH2O and stored in 70% ethanol at 4° C. until ready to be processed. Kidney stains used for histological analyses included hematoxylin and eosin (H&E), Periodic Acid Schiff (PAS) and Trichrome stains (Wistar Institute, Philadelphia, Pa.). All 3 stained sections are used by the pathologist for scoring purposes. All histological scoring is performed blinded and by an independent board certified veterinary medical pathologist (Julie Engiles, VMD, DACVP). Multiple stains are used to determine score values. Images in FIG. 39 show worst affected area of section selected blindly by the pathologist.
Kidney IC-GN Scoring Method (Smith, Dong et al. 2007):
1. Glomerular cellularity—Score 1-5: Null, low, moderate, high, severe
2. Glomerular necrosis—Score 1-5: Null, low, moderate, high, severe
3. Glomerulosclerosis—Score 1-5: Null, low, moderate, high, severe
4. Interstitial infiltration—Score 1-5: Null, low, moderate, high, severe
5. Tubular atrophy—Score 1-5: Null, low, moderate, high, severe
6. Interstitial fibrosis—Score 1-5: Null, low, moderate, high, severe
7. Vasculitis—Score 1-5: Null, low, moderate, high, severe
Specific Pathologist Definitions: • Necrosis is defined by the presence of nuclear debris/pyknosis within the glomerular tuft indicative of “necrosis.” In many samples, this is a very mild, rare finding within only a very few segments of the glomerular tuft. Also consider effacement of the glomerular tuft by PAS positive, Trichrome negative material necrosis. • Glomerular sclerosis is defined by increased fibroplasia or fibrosis within the glomerular tuft or capsule. […] Most of the vascular changes are mild and could be considered “arteriosclerosis” characterized by proliferation of the smooth muscle cells, and hyalinization of the extracellular matrix. This change may reflect hypertension secondary to glomerular pathology. In very few animals is there overt “vasculitis.” Most inflammatory changes are within the walls of the blood vessels, with little to no damage to the endothelium, and no overt hemorrhage/fibrin leakage. Many also have perivascular rims of fibroblasts.

[10] = test system: NZM mice; assay: Serum C3 complement ELISA, NZM mice (Example 2)

SMILES: O=P1(N(CCCl)CCCl)NCCCO1 (centres unmarked) [CTX, Cyclophosphamide]
- EOS survival, percent live mice from original number [1]: 70%
- Body mass AUC, percent change vs vehicle [2]: +4%
- Spleen mass EOS, percent change vs vehicle ([3]; G6 50 mg/kg ip, 1× wk): −42%
- spleen mass compared to once-a-week bortezomib ([3]; p<0.05): reduced spleen mass significantly
- Urine proteinuria AUC, percent change vs vehicle [4]: −68%
- ANA Smith Ag AUC, percent change vs vehicle ([5]; G6 50 mg/kg ip, 1× wk): −86%
- ANA chromatin AUC, percent change vs vehicle ([5]; G6 50 mg/kg ip, 1× wk): −51%
- ANA dsDNA AUC, percent change vs vehicle ([5]; G6 50 mg/kg ip, 1× wk): −66%
- reduction in anti-chromatin Ab relative to vehicle, significance ([5]; bortezomib, Dex or CTX treatment groups): none of which was significant
- Cytokine IL-12 AUC, percent change vs vehicle ([6]; G6 50 mg/kg ip, 1× wk): −78%
- Cytokine IL-13 AUC, percent change vs vehicle ([6]; G6 50 mg/kg ip, 1× wk): 486%
- Cytokine IL-17A AUC, percent change vs vehicle ([6]; G6 50 mg/kg ip, 1× wk): 508%
- Cytokine IP-10 AUC, percent change vs vehicle ([6]; G6 50 mg/kg ip, 1× wk): 338%
- Cytokine MIG AUC, percent change vs vehicle ([6]; G6 50 mg/kg ip, 1× wk): 359%
- Cytokine TNFα AUC, percent change vs vehicle ([6]; G6 50 mg/kg ip, 1× wk): −25%
- p, serum IL-12p40/p70 concentration vs G5 Bortezomib 0.3 mg/kg 1× wk ip ([6]; G7 50 mg/kg 1× wk ip): NS (NS = not significant (p > 0.05))
- p, serum IL-12p40/p70 concentration vs G6 Bortezomib 0.3 mg/kg 2× wk ip ([6]; G7 50 mg/kg 1× wk ip): NS (NS = not significant (p > 0.05))
- p, serum IL-12p40/p70 concentration vs G8 Dex 1.5 mg/kg 3× wk ip ([6]; G7 50 mg/kg 1× wk ip): NS (NS = not significant (p > 0.05))
- p, serum IL-12p40/p70 concentration vs G9 Vehicle 1× wk ip ([6]; G7 50 mg/kg 1× wk ip): p < 0.001
- p, serum IL-13 concentration vs G5 Bortezomib 0.3 mg/kg 1× wk ip ([6]; G7 50 mg/kg 1× wk ip): p < 0.001
- p, serum IL-13 concentration vs G6 Bortezomib 0.3 mg/kg 2× wk ip ([6]; G7 50 mg/kg 1× wk ip): p < 0.001
- p, serum IL-13 concentration vs G8 Dex 1.5 mg/kg 3× wk ip ([6]; G7 50 mg/kg 1× wk ip): p < 0.001
- p, serum IL-13 concentration vs G9 Vehicle 1× wk ip ([6]; G7 50 mg/kg 1× wk ip): p < 0.001
- p, serum IL-17A concentration vs G5 Bortezomib 0.3 mg/kg 1× wk ip ([6]; G7 50 mg/kg 1× wk ip): NS (NS = not significant (p > 0.05))
- p, serum IL-17A concentration vs G6 Bortezomib 0.3 mg/kg 2× wk ip ([6]; G7 50 mg/kg 1× wk ip): p < 0.001
- p, serum IL-17A concentration vs G8 Dex 1.5 mg/kg 3× wk ip ([6]; G7 50 mg/kg 1× wk ip): p < 0.001
- p, serum IL-17A concentration vs G9 Vehicle 1× wk ip ([6]; G7 50 mg/kg 1× wk ip): p < 0.001
- p, serum IP-10 concentration vs G5 Bortezomib 0.3 mg/kg 1× wk ip ([6]; G7 50 mg/kg 1× wk ip): P < 0.001
- p, serum IP-10 concentration vs G6 Bortezomib 0.3 mg/kg 2× wk ip ([6]; G7 50 mg/kg 1× wk ip): p < 0.001
- p, serum IP-10 concentration vs G8 Dex 1.5 mg/kg 3× wk ip ([6]; G7 50 mg/kg 1× wk ip): P < 0.001
- p, serum IP-10 concentration vs G9 Vehicle 1× wk ip ([6]; G7 50 mg/kg 1× wk ip): p < 0.001
- p, serum MIG concentration vs G5 Bortezomib 0.3 mg/kg 1× wk ip ([6]; G7 50 mg/kg 1× wk ip): p < 0.001
- p, serum MIG concentration vs G6 Bortezomib 0.3 mg/kg 2× wk ip ([6]; G7 50 mg/kg 1× wk ip): p < 0.001
- p, serum MIG concentration vs G8 Dex 1.5 mg/kg 3× wk ip ([6]; G7 50 mg/kg 1× wk ip): p < 0.001
- p, serum MIG concentration vs G9 Vehicle 1× wk ip ([6]; G7 50 mg/kg 1× wk ip): p < 0.001
- p, serum TNFα concentration vs G5 Bortezomib 0.3 mg/kg 1× wk ip ([6]; G7 50 mg/kg 1× wk ip): NS (NS = not significant (p > 0.05))
- p, serum TNFα concentration vs G6 Bortezomib 0.3 mg/kg 2× wk ip ([6]; G7 50 mg/kg 1× wk ip): NS (NS = not significant (p > 0.05))
- p, serum TNFα concentration vs G8 Dex 1.5 mg/kg 3× wk ip ([6]; G7 50 mg/kg 1× wk ip): p <0.05
- p, serum TNFα concentration vs G9 Vehicle 1× wk ip ([6]; G7 50 mg/kg 1× wk ip): NS (NS = not significant (p > 0.05))
- ASC chromatin EOS, percent change vs vehicle ([7]; G6 50 mg/kg ip, 1× wk): −100%
- ASC total IgG EOS, percent change vs vehicle ([7]; G6 50 mg/kg ip, 1× wk): −93%
- p, frequency of anti-chromatin antibody secreting cells in spleen vs G5 Bortezomib 0.3 mg/kg 1× wk ip ([7]; G7 50 mg/kg 1× wk ip): P < 0.05
- p, frequency of anti-chromatin antibody secreting cells in spleen vs G6 Bortezomib 0.3 mg/kg 2× wk ip ([7]; G7 50 mg/kg 1× wk ip): p < 0.05
- p, frequency of anti-chromatin antibody secreting cells in spleen vs G9 Vehicle 1× wk ip ([7]; G7 50 mg/kg 1× wk ip): p < 0.01
- p, frequency of total IgG antibody secreting cells in spleen vs G5 Bortezomib 0.3 mg/kg 1× wk ip ([7]; G7 50 mg/kg 1× wk ip): p < 0.001
- p, frequency of total IgG antibody secreting cells in spleen vs G6 Bortezomib 0.3 mg/kg 2× wk ip ([7]; G7 50 mg/kg 1× wk ip): p < 0.001
- p, frequency of total IgG antibody secreting cells in spleen vs G8 Dex 1.5 mg/kg 3× wk ip ([7]; G7 50 mg/kg 1× wk ip): P < 0.01
- p, frequency of total IgG antibody secreting cells in spleen vs G9 Vehicle 1× wk ip ([7]; G7 50 mg/kg 1× wk ip): p < 0.01
- Serum CTx linker AUC, percent change vs vehicle [8]: −26%
- p, glomerular cellularity (GC) vs G7 Vehicle ([9]; G5 50 mg/kg 1× wk): p < 0.05
- Kidney glomerular cellularity, percent change vs vehicle ([9]; G6 50 mg/kg ip, 1× wk): −7%
- Kidney glomerular necrosis, percent change vs vehicle ([9]; G6 50 mg/kg ip, 1× wk): 42%
- Kidney glomerulosclerosis, percent change vs vehicle ([9]; G6 50 mg/kg ip, 1× wk): 34%
- Kidney interstitial fibrosis, percent change vs vehicle ([9]; G6 50 mg/kg ip, 1× wk): 11%
- Kidney interstitial infiltration, percent change vs vehicle ([9]; G6 50 mg/kg ip, 1× wk): 11%
- Kidney tubular atrophy, percent change vs vehicle ([9]; G6 50 mg/kg ip, 1× wk): 18%
- Kidney vasculitis, percent change vs vehicle ([9]; G6 50 mg/kg ip, 1× wk): 9%
- Serum C3 complement AUC, percent change vs vehicle ([10]; G6 50 mg/kg ip, 1× wk): −18%
- p, serum C3 complement levels vs G8 Dex 1.5 mg/kg 3× wk ip ([10]; G7 50 mg/kg 1× wk ip): p < 0.01
